Measurements: ChEMBL document CHEMBL4732141, “Imidazopyridine-Based 5-HT Receptor Neutral Antagonists: Impact of N-Benzyl and N-Phenylsulfonyl Fragments on Different Receptor Conformational States” (J Med Chem, 2021)
Active and inactive are the calls of the source. The rule behind the calls is not given here.

Legend:
[1] = Stability in deuterated dimethyl sulfoxide; type: physicochemical
[2] = Stability in pH 1 buffer assessed as compound decomposition after 24 hrs; type: physicochemical; details: pH 1, 24 h
[3] = Stability in pH 1 buffer assessed as compound decomposition after 1 hr; type: physicochemical; details: pH 1, 1 h
[4] = biological target: T1, muscarinic acetylcholine receptor M1 (Homo sapiens, UniProt P11229); experiment: Inhibition of human muscarinic receptor 1 at 1 uM relative to control
T1 sequence (P11229 whole entry): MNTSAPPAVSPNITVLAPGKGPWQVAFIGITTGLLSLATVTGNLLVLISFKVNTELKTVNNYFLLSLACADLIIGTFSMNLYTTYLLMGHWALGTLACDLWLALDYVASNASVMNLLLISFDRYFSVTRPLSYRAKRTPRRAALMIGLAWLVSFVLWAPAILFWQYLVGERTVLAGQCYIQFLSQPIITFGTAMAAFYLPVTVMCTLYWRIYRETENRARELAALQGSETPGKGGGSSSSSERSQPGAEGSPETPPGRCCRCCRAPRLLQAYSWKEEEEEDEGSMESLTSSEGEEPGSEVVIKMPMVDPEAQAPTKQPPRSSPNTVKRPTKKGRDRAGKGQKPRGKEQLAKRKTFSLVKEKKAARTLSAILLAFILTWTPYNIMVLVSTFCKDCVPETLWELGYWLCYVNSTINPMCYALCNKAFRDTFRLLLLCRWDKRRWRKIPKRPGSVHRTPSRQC

[5] = biological target: T2, 5-hydroxytryptamine receptor 1A (Homo sapiens, UniProt P08908); experiment: Antagonist activity at human 5HT1A expressed in HEK293 cells assessed as reduction in forskolin-induced stimulation of cAMP production incubated for 30 mins by LANCE ultra cAMP detection assay; type: cell-based; details: hek293, 0.5 h
T2 sequence (P08908 whole entry): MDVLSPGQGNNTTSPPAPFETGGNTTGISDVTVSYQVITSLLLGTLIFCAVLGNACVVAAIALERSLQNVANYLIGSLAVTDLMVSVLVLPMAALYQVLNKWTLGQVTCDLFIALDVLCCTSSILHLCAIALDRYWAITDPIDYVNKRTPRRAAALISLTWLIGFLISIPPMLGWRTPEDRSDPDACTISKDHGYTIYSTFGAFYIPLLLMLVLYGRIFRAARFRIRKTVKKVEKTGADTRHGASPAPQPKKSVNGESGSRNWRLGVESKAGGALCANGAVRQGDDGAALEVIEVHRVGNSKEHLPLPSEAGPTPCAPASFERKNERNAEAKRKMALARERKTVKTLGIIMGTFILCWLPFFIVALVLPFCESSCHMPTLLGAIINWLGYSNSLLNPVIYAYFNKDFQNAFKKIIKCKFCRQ

[6] = biological target: T2, 5-hydroxytryptamine receptor 1A; experiment: Agonist activity at human 5HT1A expressed in HEK293 cells assessed as stimulation of cAMP production incubated for 30 mins by LANCE ultra cAMP detection assay; type: cell-based
[7] = biological target: beta-1 adrenergic receptor (Homo sapiens, UniProt P08588); experiment: Inhibition of human beta1 adrenergic receptor at 1 uM relative to control
Chain of beta-1 adrenergic receptor (P08588 whole entry): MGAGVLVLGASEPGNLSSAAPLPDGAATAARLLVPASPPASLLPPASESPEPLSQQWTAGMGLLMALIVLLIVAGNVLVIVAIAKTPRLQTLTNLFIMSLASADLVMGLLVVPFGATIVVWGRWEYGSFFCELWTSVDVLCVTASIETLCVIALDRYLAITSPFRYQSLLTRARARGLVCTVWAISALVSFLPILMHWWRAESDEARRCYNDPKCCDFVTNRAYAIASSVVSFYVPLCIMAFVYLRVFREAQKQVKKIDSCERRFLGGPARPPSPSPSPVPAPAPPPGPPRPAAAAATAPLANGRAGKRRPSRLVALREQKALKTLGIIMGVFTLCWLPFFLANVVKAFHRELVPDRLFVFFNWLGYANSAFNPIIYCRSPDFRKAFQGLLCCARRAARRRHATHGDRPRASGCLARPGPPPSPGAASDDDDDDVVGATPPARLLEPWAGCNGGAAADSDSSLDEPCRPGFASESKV

[8] = biological target: T3, alpha-1A adrenergic receptor (Homo sapiens, UniProt P35348); experiment: Inhibition of human alpha1A adrenergic receptor at 1 uM relative to control
T3 sequence (P35348 whole entry): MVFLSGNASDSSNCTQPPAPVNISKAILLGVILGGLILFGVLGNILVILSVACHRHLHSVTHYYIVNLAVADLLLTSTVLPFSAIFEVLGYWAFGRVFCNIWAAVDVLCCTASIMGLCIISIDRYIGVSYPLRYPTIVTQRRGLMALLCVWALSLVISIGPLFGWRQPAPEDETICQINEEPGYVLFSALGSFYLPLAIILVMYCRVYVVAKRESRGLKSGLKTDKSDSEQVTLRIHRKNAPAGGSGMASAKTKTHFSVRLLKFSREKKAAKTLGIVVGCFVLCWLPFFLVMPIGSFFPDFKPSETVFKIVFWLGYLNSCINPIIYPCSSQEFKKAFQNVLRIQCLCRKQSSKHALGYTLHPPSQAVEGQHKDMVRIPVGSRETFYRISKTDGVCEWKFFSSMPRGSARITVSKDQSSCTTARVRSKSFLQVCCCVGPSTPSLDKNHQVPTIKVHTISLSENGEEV

[9] = biological target: 5-hydroxytryptamine receptor 2A (Homo sapiens, UniProt P28223); experiment: Displacement of […] from human 5HT2A expressed in HEK293 cell membranes incubated for 1 hr by micro-beta plate reader based analysis; set-up: species or system Cell membrane
Chain of 5-hydroxytryptamine receptor 2A (P28223 whole entry): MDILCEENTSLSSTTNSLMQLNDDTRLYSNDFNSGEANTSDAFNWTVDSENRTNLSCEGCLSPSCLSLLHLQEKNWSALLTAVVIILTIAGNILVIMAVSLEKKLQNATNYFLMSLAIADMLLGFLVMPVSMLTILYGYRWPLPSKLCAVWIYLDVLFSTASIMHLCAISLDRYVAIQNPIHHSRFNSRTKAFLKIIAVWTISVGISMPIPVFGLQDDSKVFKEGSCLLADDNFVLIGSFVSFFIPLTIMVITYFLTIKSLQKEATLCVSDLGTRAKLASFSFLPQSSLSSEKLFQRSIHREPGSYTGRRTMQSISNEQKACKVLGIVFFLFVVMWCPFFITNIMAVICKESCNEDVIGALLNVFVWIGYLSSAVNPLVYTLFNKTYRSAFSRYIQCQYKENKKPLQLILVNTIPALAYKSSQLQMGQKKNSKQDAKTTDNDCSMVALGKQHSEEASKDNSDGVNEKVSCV

[10] = biological target: hERG (KCNH2) (Homo sapiens, UniProt Q12809); experiment: Inhibition of human ERG at 1 uM relative to control
Chain of hERG (KCNH2) (Q12809 whole entry): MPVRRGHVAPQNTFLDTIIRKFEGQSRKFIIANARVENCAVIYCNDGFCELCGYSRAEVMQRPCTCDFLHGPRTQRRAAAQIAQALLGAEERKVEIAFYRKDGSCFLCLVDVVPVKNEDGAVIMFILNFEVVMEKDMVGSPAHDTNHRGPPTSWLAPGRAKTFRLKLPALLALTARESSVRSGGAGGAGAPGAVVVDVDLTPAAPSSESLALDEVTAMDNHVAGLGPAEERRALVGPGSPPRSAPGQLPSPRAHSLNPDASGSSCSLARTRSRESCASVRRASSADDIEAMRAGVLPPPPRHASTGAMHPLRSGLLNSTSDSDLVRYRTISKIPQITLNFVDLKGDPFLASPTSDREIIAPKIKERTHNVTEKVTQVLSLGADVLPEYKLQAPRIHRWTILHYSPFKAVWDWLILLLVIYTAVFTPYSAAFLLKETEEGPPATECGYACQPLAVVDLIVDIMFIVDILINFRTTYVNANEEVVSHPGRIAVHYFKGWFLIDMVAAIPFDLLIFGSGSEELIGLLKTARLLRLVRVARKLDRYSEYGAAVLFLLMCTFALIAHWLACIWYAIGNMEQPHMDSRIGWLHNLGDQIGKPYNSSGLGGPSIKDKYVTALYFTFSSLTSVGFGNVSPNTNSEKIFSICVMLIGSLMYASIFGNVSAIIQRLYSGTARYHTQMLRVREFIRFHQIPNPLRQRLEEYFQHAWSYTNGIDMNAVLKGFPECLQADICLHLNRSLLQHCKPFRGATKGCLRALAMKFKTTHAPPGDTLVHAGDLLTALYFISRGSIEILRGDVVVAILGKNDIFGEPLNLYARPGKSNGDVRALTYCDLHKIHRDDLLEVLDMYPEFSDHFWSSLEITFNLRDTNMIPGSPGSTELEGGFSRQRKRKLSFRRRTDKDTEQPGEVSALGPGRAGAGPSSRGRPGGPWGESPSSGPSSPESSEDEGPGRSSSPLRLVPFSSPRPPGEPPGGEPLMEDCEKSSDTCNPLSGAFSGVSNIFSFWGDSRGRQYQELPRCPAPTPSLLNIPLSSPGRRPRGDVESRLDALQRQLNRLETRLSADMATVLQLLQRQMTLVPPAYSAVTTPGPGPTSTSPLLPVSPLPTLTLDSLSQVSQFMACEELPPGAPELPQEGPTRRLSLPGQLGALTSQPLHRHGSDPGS

[11] = biological target: histamine H1 receptor (HRH1) (Homo sapiens, UniProt P35367); experiment: Inhibition of human HRH1 at 1 uM relative to control
Chain of histamine H1 receptor (HRH1) (P35367 whole entry): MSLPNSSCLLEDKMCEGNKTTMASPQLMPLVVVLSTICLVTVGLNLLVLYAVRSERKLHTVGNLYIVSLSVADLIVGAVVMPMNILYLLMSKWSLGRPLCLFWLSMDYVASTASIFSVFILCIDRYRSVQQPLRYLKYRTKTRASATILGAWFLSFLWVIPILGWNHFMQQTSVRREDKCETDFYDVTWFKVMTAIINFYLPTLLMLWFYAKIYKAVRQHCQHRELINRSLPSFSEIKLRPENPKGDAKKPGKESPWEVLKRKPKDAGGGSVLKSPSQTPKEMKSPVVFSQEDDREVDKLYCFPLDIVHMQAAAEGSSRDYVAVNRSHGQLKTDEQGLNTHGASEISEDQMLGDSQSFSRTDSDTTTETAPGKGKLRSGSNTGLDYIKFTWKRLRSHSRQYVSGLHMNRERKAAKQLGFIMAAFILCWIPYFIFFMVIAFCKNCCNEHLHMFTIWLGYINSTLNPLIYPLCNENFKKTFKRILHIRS

[12] = biological target: T2, 5-hydroxytryptamine receptor 1A; experiment: Displacement of […] from human 5HT1A expressed in HEK293 cell membranes incubated for 1 hr by micro-beta plate reader based analysis; set-up: species or system Cell membrane
[13] = Toxicity in mouse C8-D1A astrocytes assessed as reduction in cell viability at […] by MTT assay; type: cell-based; details: astrocyte, dose 0.25 µM
[14] = tested on: Astrocyte; experiment: Glio-protective activity in mouse C8-D1A astrocytes assessed as reduction in DOX-induced toxicity at […] pre-incubated for 5 hrs before doxorubicin addition and measured after 3 hrs by LDH release assay; type: functional, cell-based; details: dose 0.25 µM
[15] = tested on: Astrocyte; experiment: Glio-protective activity in mouse C8-D1A astrocytes assessed as reduction in 6-OHDA-induced toxicity at […] pre-incubated for 12 hrs before doxorubicin addition and measured after 24 hrs by MTT assay; type: functional, cell-based; details: dose 0.25 µM, time 36.0 hrs
[16] = tested on: Astrocyte; experiment: Glio-protective activity in mouse C8-D1A astrocytes assessed as reduction in DOX-induced toxicity at […] pre-incubated for 5 hrs before doxorubicin addition and measured after 3 hrs by MTT assay; type: functional, cell-based; details: dose 0.25 µM, time 8.0 hrs
[17] = Toxicity in mouse C8-D1A astrocytes assessed as reduction in cell viability by MTT assay; type: cell-based, Astrocyte
[18] = tested on: Astrocyte; experiment: Glio-protective activity in mouse C8-D1A astrocytes assessed as reduction in 6-OHDA-induced toxicity at […] pre-incubated for 12 hrs before doxorubicin addition and measured after 24 hrs by LDH assay; type: functional, cell-based; details: dose 0.25 µM, time 36.0 hrs
[19] = Effect on neurite growth in […] NG108-15 cells expressing GFP-tagged 5-HT6 receptor assessed as neurite length at 1 uM incubated for 24 hrs by epifluorescence microscopy (reference value: 37.20 +/- 1.53 micrometer); type: functional
[20] = Neurotoxicity in human SH-SY5Y cells assessed as reduction in cell viability incubated for 24 hrs by MTT assay; type: toxicity, cell-based
[21] = biological target: 5-hydroxytryptamine receptor 6 (Homo sapiens, UniProt P50406); experiment: Binding affinity to 5HT6R (unknown origin)
Chain of 5-hydroxytryptamine receptor 6 (P50406 whole entry): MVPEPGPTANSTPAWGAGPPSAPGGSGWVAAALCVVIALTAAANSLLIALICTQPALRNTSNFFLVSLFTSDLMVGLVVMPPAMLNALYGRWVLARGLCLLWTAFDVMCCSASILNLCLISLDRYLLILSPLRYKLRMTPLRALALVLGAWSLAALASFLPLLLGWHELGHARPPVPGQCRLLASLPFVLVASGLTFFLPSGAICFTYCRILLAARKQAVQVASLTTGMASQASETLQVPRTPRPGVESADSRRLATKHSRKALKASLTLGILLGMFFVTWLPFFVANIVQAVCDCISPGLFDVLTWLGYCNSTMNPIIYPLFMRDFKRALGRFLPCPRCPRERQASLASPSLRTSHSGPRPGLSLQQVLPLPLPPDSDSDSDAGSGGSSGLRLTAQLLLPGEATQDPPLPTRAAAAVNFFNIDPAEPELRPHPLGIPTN

| Structure (SMILES) | Stabilty [1] | Stabilty [3] | other results |
| --- | --- | --- | --- |
| COc1cccc(S(=O)(=O)n2c(C(C)C)nc3c(N4CCNCC4)nccc32)c1 | Unstable | Stable | Stabilty [2]: Stable |
| CCc1nc2c(N3CCNCC3)nccc2n1S(=O)(=O)c1cccc(Cl)c1 | Unstable | Stable | inhibition at 1 µM [4]: 4%; Activity [5]: Not Active; EC50 [6]: > 20000 nM; inhibition at 1 µM [7]: 10%; inhibition at 1 µM [8]: 22%; Ki [9]: 562 nM; inhibition at 1 µM [10]: 12%; inhibition at 1 µM [11]: 6%; Ki [12]: 146 nM |
| CC(C)c1nc2c(N3CCNCC3)nccc2n1S(=O)(=O)c1cccc(Cl)c1 | Unstable | Stable | Ki [9]: 239 nM; Ki [12]: 307 nM |
| COc1cccc(S(=O)(=O)n2cnc3c(N4CCNCC4)nccc32)c1 | Unstable | Stable |  |
| O=S(=O)(c1cccc(F)c1)n1c(-c2ccccc2)nc2c(N3CCNCC3)nccc21 | Unstable | Stable |  |
| O=S(=O)(c1ccccc1)n1c(-c2ccccc2)nc2c(N3CCNCC3)nccc21 | Unstable | Stable |  |
| COc1ccc(NS(=O)(=O)c2ccc(I)cc2)cc1N1CCN(C)CC1 |  |  | Activity [13]: Non-Toxic; Activity [14]: inactive; Activity [15]: inactive; Activity [16]: inactive; CC50 [17]: > 1000 nM; Activity [18]: inactive |
| O=S(=O)(c1ccccc1)n1cnc2c(N3CCNCC3)nccc21 | Unstable | Stable |  |
| O=S(=O)(c1ccccc1)c1cnc2c(N3CCNCC3)cccc2c1 [INTEPIRDINE] |  | Stable | Activity [13]: Non-Toxic; Activity [19]: 12.06 um; CC50 [17]: > 1000 nM |
| COc1cccc2c1C(=O)c1c(O)c3c(c(O)c1C2=O)C[C@@](O)(C(=O)CO)C[C@@H]3O[C@H]1C[C@H](N)[C@H](O)[C@H](C)O1 [DOXORUBICIN] |  |  | IC50 at 24 h [20]: 2300 nM |
| O=S(=O)(c1cccc(F)c1)n1cnc2c(N3CCNCC3)nccc21 | Unstable | Stable |  |
| CC(C)c1nc2c(N3CCNCC3)nccc2n1S(=O)(=O)c1ccccc1 | Unstable | Stable |  |
| CC(C)c1nc2c(N3CCNCC3)nccc2n1S(=O)(=O)c1cccc(F)c1 | Unstable | Stable |  |
| COc1cccc(S(=O)(=O)n2c(-c3ccccc3)nc3c(N4CCNCC4)nccc32)c1 | Unstable | Stable |  |
| O=S(=O)(c1cccc(Cl)c1)n1cnc2c(N3CCNCC3)nccc21 | Unstable | Stable | Ki [9]: 355 nM; Ki [12]: 285 nM |
| CCc1nc2c(N3CCNCC3)nccc2n1S(=O)(=O)c1cccc(F)c1 | Unstable | Stable | Ki [9]: 264 nM; Ki [12]: 829 nM |
| O=S(=O)(c1cccc(Cl)c1)n1c(-c2ccccc2)nc2c(N3CCNCC3)nccc21 | Unstable | Stable | Ki [9]: 410 nM; Ki [12]: 1090 nM |
| Cc1nc2c(N3CCNCC3)cccc2n1S(=O)(=O)c1ccccc1 [PF-05212377] |  |  | Ki [21]: 0.5 nM |
